Experimental findings from patent US7550463B2, “Carbamoylpyridone derivatives having inhibitory activity against HIV integrase” (Shionogi & Co., Ltd., priority 2004, dated 2009) are described below.

In series [1] the target is HIV integrase (Human immunodeficiency virus type 1 group M subtype B, UniProt P04585). The series can be described thus: HIV integrase inhibitory activity assay (immunoplate, substrate DNA / target DNA, OD 405 nm). To be noted: read-out: Integrase inhibitory activity (IC50, ng/ml) (converted). The class given is biochemical. On the procedure:
The HIV integrase inhibitory activity was examined based on an assay method shown below.
(1) Preparation of DNA Solution
According to the same method as the method described in Test Example 1 of WO 2004/024693, a substrate DNA solution (2 pmol/μl) and a target DNA solution (5 pmol/μl) were prepared. […] Each sequence of a substrate DNA and a target DNA is as described in the same Test Example.
(2) Measurement of Inhibition Rate (IC50 Value)
Streptavidin (manufactured by Vector Laboratories) was dissolved in a 0. 1M carbonate buffer (composition: 90 mM Na2CO3, 10 mM NaHCO3 )to a concentration of 40 μg/ml. Each 50 μl of this solution was added to a well of an immunoplate (manufactured by NUNC), and this was allowed to stand at 4° C. overnight to perform adsorption. Then, each well was washed with, a phosphate buffer (composition: 13.7 mM NaCl, 0.27 mM KCl, 0.43 mM. Na2HPO4, 0.14 mM KH2PO4) two times, 300 μl of a phosphate buffer containing 1% skim milk was added, and blocking was performed for 30 minutes. […]
Each plate was incubated at 30° C. for 10 minutes, and the reaction solution was discarded, followed by washing with a phosphate buffer two times. […] Inhibition rate (%)=100[1−{(C abs.−NC abs.)/(PC abs.−NC abs.)}] • C abs.; absorbance of well of compound • NC abs.: absorbance of NC • PC abs.: absorbance of PC

`O=C(NCc1ccc(F)cc1)c1[nH]cc(C(=O)NCc2ccc(F)cc2)c(=O)c1O` came in with a melting point of 279 to 280 °C.

Regarding `COC(=O)c1[nH]cc(C(=O)NCc2ccc(F)cc2)c(=O)c1O` [Compound A-1a, Methyl 5-(4-fluorobenzylcarbamoyl)-3-hydroxy-4-oxo-1,4-dihydropyridine-2-carboxylate], the IC50 in series [1] was 20 nM.

As to `O=C(O)c1[nH]cc(C(=O)NCc2ccc(F)cc2)c(=O)c1O` [Compound A-3], in series [1], the IC50 is 10.1 nM.
